Measurements from US20220305013A1, “STABLE COLLOIDAL DRUG AGGREGATES AND METHODS OF MANUFACTURE AND USE THEREOF” (THE GOVERNING COUNCIL OF THE UNIVERSITY OF TORONTO, priority 2019, published 2022).

Tests used:
[1] = Drug release from colloids (centrifugation, drug in supernatant by HPLC-MS-MS); assay type: physicochemical; settings: for amount of drug released from co-colloids as a function of pH / drug release over time after acidification to pH 5.5: 12.5 μM lapatinib, 37.5 μM fulvestrant, 0.01 mg/mL PLAC-PEG in PBS
Description: Drug release was measured by centrifuging to pellet the colloids, and then by quantifying the drug in the supernatant. Colloid formulations were centrifuged at 16,000×g for 1 h, followed by withdrawal of 100 μL for quantification. Another 100 μL was withdrawn for DLS analysis to confirm that the colloids had completely settled out of solution. Non-centrifuged colloid suspensions were used as controls.
Drug concentration in samples from drug release and membrane permeability assays was quantified by high pressure liquid chromatography coupled with tandem mass spectrometry (HPLC-MS-MS). Protein was precipitated from samples in serum containing media by spiking with 10 μL of formic acid and adding acetonitrile to a final volume of 1 mL. The precipitated samples were then centrifuged at 16,000×g for 5 min to pellet the proteins. The drug-containing supernatant was then diluted in methanol such that the final drug concentration was less than 100 ng mL^−1. During the final dilution, internal standards (nilotinib for lapatinib and norethindrone for fulvestrant) were added to a final concentration of 25 ng/mL each. Standard curves were prepared in a similar way, by diluting 100 mM solutions of drug in DMSO with methanol to final concentrations of 100, 75, 50, 25, 10, 5, 2.5, and 1 ng mL^−1, each with 25 ng mL^−1 of internal standard.

[2] = Membrane permeability assay; assay type: in vitro ADME; settings: co-colloids 50 μM lapatinib, 150 μM fulvestrant, 0.04 mg/mL PLAC-PEG, 10% FBS, 6 h, 37° C., acidified vs not
Description: Supported artificial lipid membranes were prepared according to the manufacturer instructions (EMD Millipore cat #MATRNPS50). Briefly, a 1% (w/w) solution of egg lecithin in dodecane was prepared by sonicating until the solution was no longer cloudy. A 5 μL aliquot of this phospholipid solution was dropped by pipette into each well of the mesh plate, which wet the membrane and caused it to become translucent. Receiver solution was prepared as 1% (v/v) DMSO and 10% (v/v) FBS in PBS and 340 μL was pipetted into each well of the receiver plate. Lapatinib and fulvestrant solutions ranging from 0 to 5 μM for constructing the standard curve were prepared in identical media and pipetted into separate wells of the receiver plate. Colloids were prepared in PBS containing 10% (v/v) FBS as described above, and 150 μL was pipetted into the mesh plate wells corresponding to the receiver solution in the receiver plate. The mesh plate and receiver plate were gently mated, resulting in the receiver solution wetting the bottom of the phospholipid membrane. […] Finally, the stack was carefully disassembled and a 200 μL sample of receiver and standard curve solutions was withdrawn for drug quantification as described below. […]
Drug concentration in samples from drug release and membrane permeability assays was quantified by high pressure liquid chromatography coupled with tandem mass spectrometry (HPLC-MS-MS). […]

[3] = Critical aggregation concentration (CAC) by dynamic light scattering in pH-adjusted PBS; assay type: physicochemical; settings: for critical aggregation concentration (CAC) as a function of pH: pH 7.4 vs 5.5, DLS; for CAC over a range of pH values: DLS
Description: CAC values are calculated by preparing colloidal formulations with different concentrations and measuring the scattering intensity (or fluorescence intensity when appropriate). The data is then fit to Equation S4, which was derived from first principles (Equations S1-S3), using the MATLAB curve fitting toolbox to obtain the critical aggregation concentration (CAC) under the conditions used.
Colloids were formulated as described in Example 1. […] 100 μL of each sample was analyzed by DLS and the CAC's calculated as described in Example 1.
Colloids were formulated as described in Example 1. Briefly, solutions of fulvestrant analogue in DMSO were prepared at various concentrations and then diluted 100-fold with PBS at different […]. 100 μL of each sample was analyzed by DLS and the CAC's calculated as described in Example 1.
Colloids were formulated as described in Example 1. Briefly, solutions of siramesine in DMSO were prepared at various concentrations and then diluted 100-fold with pH-adjusted PBS containing stabilizer (where applicable). 100 μL of each sample was analyzed by DLS and the CACs calculated as described in Example 1.

Zeta potential = assay type: physicochemical; settings: 0.1 mM KCl
Description: Colloids were prepared as described above, but with a single addition of 0.1 mM KCl solution instead of water and buffer. Zeta potential was immediately assessed using a Malvern Nano-ZS (Malvern Panalytical).

[4] = Acid responsiveness of colloids prepared at different pH (spun down, absorbance); assay type: physicochemical; settings: with or without Herceptin as stabilizing agent
Description: The colloids were prepared in different pH conditions, spun down, extracted from the supernatant by organic solvent, dried, reconstituted in DMSO and measured for absorbance.

Row | amount of drug released from co-colloids as a function of pH [1] | transmembrane diffusion [2] | critical aggregation concentration (CAC) as a function of pH [3] | CAC over a range of pH values [3] | zeta potential (surface charge) (Zeta potential) | acid responsiveness of colloidal drug aggregate [4] | SMILES | drug release over time after acidification to pH 5.5 [1] | ionization state of released lapatinib ([1]; calculated by acid-base theory from release data, low pH)
1 | increased with increasing acidity | reduced when the colloids were acidified | pH-dependent CACs |  |  |  | CS(=O)(=O)CCNCc1ccc(-c2ccc3ncnc(Nc4ccc(OCc5cccc(F)c5)c(Cl)c4)c3c2)o1 [lapatinib] | rapidly reached an equilibrium that was sustained for 24 h | Most lapatinib that is released at low pH is ionized
2 |  |  | did not dissolve on acidification | not pH-dependent |  | did not demonstrate acid responsiveness | CNC(=O)c1cc(Oc2ccc(NC(=O)Nc3ccc(Cl)c(C(F)(F)F)c3)cc2)ccn1 [sorafenib] |  | 
3 |  |  |  | increase in CAC values |  |  | Fc1ccc(-n2cc(CCCCN3CCC4(CC3)OCc3ccccc34)c3ccccc32)cc1 [siramesine] |  | 

More lines, now with the values behind:

Row | SMILES | amount of drug released from co-colloids as a function of pH [1] | transmembrane diffusion [2] | critical aggregation concentration (CAC) as a function of pH [3] | CAC over a range of pH values [3] | zeta potential (surface charge) (Zeta potential) | acid responsiveness of colloidal drug aggregate [4] | drug release over time after acidification to pH 5.5 [1] | ionization state of released lapatinib ([1]; calculated by acid-base theory from release data, low pH)
4 | C[C@]12CC[C@@H]3c4ccc(O)cc4C[C@@H](CCCCCCCCC[S+]([O-])CCCC(F)(F)C(F)(F)F)[C@H]3[C@@H]1CC[C@@H]2O (stereo partly drawn) [fulvestrant] | unaffected by pH |  | did not dissolve on acidification | No change in CAC values | negative zeta potential |  | remained unresponsive to acid | 
5 | Clc1ccccc1C(c1ccccc1)(c1ccccc1)n1ccnc1 [clotrimazole] |  |  | pH-dependent CACs |  |  |  |  | 
